From PubChem BioAssay AID1963825 (Molecular Pharmacology Branch, DTP, NCI, 2024)

Assay: Anticancer human tumor 997537-175-T-J1-PDC patient-derived colon adenocarcinoma cell line growth inhibition [POLQ]
Conditions: 997537-175-T-J1-PDC complex spheroid viability, combination with POLQ inhibitors; for IC50: curve of first compound; for viability, T/C: stronger effect = lower value
In short: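 Patient-derived tumour cells were co-cultured with HUVEC and mesenchymal stem cells as multicellular spheroids at 37 °C. They were treated with POLQ inhibitors (novobiocin, ART-558, RP6685) alone or combined with other agents. Top concentrations were at or near clinical Cmax (otherwise 10 microM; SN-38 at 1 microM), decreasing in half-log steps.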

[1] = second compound 0.0316 µM, first compound 0.0316 µM
[2] = second compound 0.0316 µM, first compound 0.1 µM
[3] = second compound 0.0316 µM, first compound 0.316 µM
[4] = second compound 0.0316 µM, first compound 1 µM
[5] = second compound 0.0316 µM, first compound 3.16 µM
[6] = second compound 0.0316 µM, first compound 10 µM
[7] = second compound 0.1 µM, first compound 0.0316 µM
[8] = second compound 0.1 µM, first compound 0.1 µM
[9] = second compound 0.1 µM, first compound 0.316 µM
[10] = second compound 0.1 µM, first compound 1 µM
[11] = second compound 0.1 µM, first compound 3.16 µM
[12] = second compound 0.1 µM, first compound 10 µM
[13] = second compound 0.316 µM, first compound 0.0316 µM
[14] = second compound 0.316 µM, first compound 0.1 µM
[15] = second compound 0.316 µM, first compound 0.316 µM
[16] = second compound 0.316 µM, first compound 1 µM
[17] = second compound 0.316 µM, first compound 3.16 µM
[18] = second compound 0.316 µM, first compound 10 µM
[19] = second compound 1 µM, first compound 0.0316 µM
[20] = second compound 1 µM, first compound 0.1 µM
[21] = second compound 1 µM, first compound 0.316 µM
[22] = second compound 1 µM, first compound 1 µM
[23] = second compound 1 µM, first compound 3.16 µM
[24] = second compound 1 µM, first compound 10 µM
[25] = second compound 3.16 µM, first compound 0.0316 µM
[26] = second compound 3.16 µM, first compound 0.1 µM
[27] = second compound 3.16 µM, first compound 0.316 µM
[28] = second compound 3.16 µM, first compound 1 µM
[29] = second compound 3.16 µM, first compound 3.16 µM
[30] = second compound 3.16 µM, first compound 10 µM
[31] = second compound 10 µM, first compound 0.0316 µM
[32] = second compound 10 µM, first compound 0.1 µM
[33] = second compound 10 µM, first compound 0.316 µM
[34] = second compound 10 µM, first compound 1 µM
[35] = second compound 10 µM, first compound 3.16 µM
[36] = second compound 10 µM, first compound 10 µM
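Further: luminescence signal used as a surrogate for viable cells; spheroids exposed to drugs for seven days before readout.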

Compound: COc1cccc2c1C(=O)c1c(O)c3c(c(O)c1C2=O)CC(O)(C(=O)CO)CC3OC1CC(N)C(O)C(C)O1 (stereo unspecified) + COC1C(OC(N)=O)C(O)C(Oc2ccc3c(O)c(NC(=O)c4ccc(O)c(CC=C(C)C)c4)c(=O)oc3c2C)OC1(C)C
- IC50 (second compound 0.0316 µM): 2.49 µM
- IC50 (second compound 0.1 µM): 1.66 µM
- IC50 (second compound 0.316 µM): 2.22 µM
- IC50 (second compound 1 µM): 3.23 µM
- IC50 (second compound 3.16 µM): 2.03 µM
- IC50 (second compound 10 µM): 2.77 µM
- viability, T/C [1]: 114%
- viability, T/C [2]: 100%
- viability, T/C [3]: 98%
- viability, T/C [4]: 84.8%
- viability, T/C [5]: 40.2%
- viability, T/C [6]: 7.93%
- viability, T/C [7]: 102%
- viability, T/C [8]: 114%
- viability, T/C [9]: 95.6%
- viability, T/C [10]: 75.4%
- viability, T/C [11]: 18.1%
- viability, T/C [12]: 10.4%
- viability, T/C [13]: 101%
- viability, T/C [14]: 99.8%
- viability, T/C [15]: 102%
- viability, T/C [16]: 96.6%
- viability, T/C [17]: 29.2%
- viability, T/C [18]: 8.56%
- viability, T/C [19]: 94.7%
- viability, T/C [20]: 89.8%
- viability, T/C [21]: 88%
- viability, T/C [22]: 95.1%
- viability, T/C [23]: 50.8%
- viability, T/C [24]: 9.76%
- viability, T/C [25]: 106%
- viability, T/C [26]: 119%
- viability, T/C [27]: 75.4%
- viability, T/C [28]: 77.6%
- viability, T/C [29]: 34.8%
- viability, T/C [30]: 13.1%
- viability, T/C [31]: 96.5%
- viability, T/C [32]: 99.3%
- viability, T/C [33]: 107%
- viability, T/C [34]: 97.4%
- viability, T/C [35]: 43.9%
- viability, T/C [36]: 7.86%

Compound: C#Cc1c(F)ccc2cc(O)cc(-c3ncc4c(N5CC6CCC(C5)N6)nc(OCC56CCCN5CC(F)C6)nc4c3F)c12 (stereo unspecified) + Nc1ccc(C#CCN(C(=O)Cc2ncc(C(F)(F)F)cc2C(F)(F)F)c2ccc(F)cc2)nn1
- IC50 (second compound 0.0316 µM): > 10 µM
- IC50 (second compound 0.1 µM): > 10 µM
- IC50 (second compound 0.316 µM): > 10 µM
- IC50 (second compound 1 µM): > 10 µM
- IC50 (second compound 3.16 µM): > 10 µM
- IC50 (second compound 10 µM): > 10 µM
- viability, T/C [1]: 92.4%
- viability, T/C [2]: 93%
- viability, T/C [3]: 108%
- viability, T/C [4]: 106%
- viability, T/C [5]: 102%
- viability, T/C [6]: 96.5%
- viability, T/C [7]: 101%
- viability, T/C [8]: 110%
- viability, T/C [9]: 101%
- viability, T/C [10]: 86.8%
- viability, T/C [11]: 94.1%
- viability, T/C [12]: 96.7%
- viability, T/C [13]: 105%
- viability, T/C [14]: 105%
- viability, T/C [15]: 101%
- viability, T/C [16]: 96.9%
- viability, T/C [17]: 103%
- viability, T/C [18]: 110%
- viability, T/C [19]: 106%
- viability, T/C [20]: 103%
- viability, T/C [21]: 95.8%
- viability, T/C [22]: 82.8%
- viability, T/C [23]: 106%
- viability, T/C [24]: 98.1%
- viability, T/C [25]: 94.9%
- viability, T/C [26]: 103%
- viability, T/C [27]: 99.5%
- viability, T/C [28]: 92.7%
- viability, T/C [29]: 104%
- viability, T/C [30]: 107%
- viability, T/C [31]: 104%
- viability, T/C [32]: 102%
- viability, T/C [33]: 100%
- viability, T/C [34]: 112%
- viability, T/C [35]: 98.8%
- viability, T/C [36]: 110%

Compound: CCCS(=O)(=O)Nc1ccc(F)c(C(=O)c2c[nH]c3ncc(-c4ccc(Cl)cc4)cc23)c1F + Nc1ccc(C#CCN(C(=O)Cc2ncc(C(F)(F)F)cc2C(F)(F)F)c2ccc(F)cc2)nn1
- IC50 (second compound 0.0316 µM): 5.51 µM
- IC50 (second compound 0.1 µM): 7.31 µM
- IC50 (second compound 0.316 µM): 5.97 µM
- IC50 (second compound 1 µM): 5.25 µM
- IC50 (second compound 3.16 µM): 6 µM
- IC50 (second compound 10 µM): 6.76 µM
- viability, T/C [1]: 81.8%
- viability, T/C [2]: 88.9%
- viability, T/C [3]: 80.7%
- viability, T/C [4]: 70.3%
- viability, T/C [5]: 74.2%
- viability, T/C [6]: 27.2%
- viability, T/C [7]: 101%
- viability, T/C [8]: 86.5%
- viability, T/C [9]: 80.9%
- viability, T/C [10]: 71.3%
- viability, T/C [11]: 82.8%
- viability, T/C [12]: 37.9%
- viability, T/C [13]: 90.3%
- viability, T/C [14]: 88.3%
- viability, T/C [15]: 78.4%
- viability, T/C [16]: 71.9%
- viability, T/C [17]: 79.3%
- viability, T/C [18]: 26.4%
- viability, T/C [19]: 84.9%
- viability, T/C [20]: 96.4%
- viability, T/C [21]: 84.2%
- viability, T/C [22]: 86.4%
- viability, T/C [23]: 66.8%
- viability, T/C [24]: 28.5%
- viability, T/C [25]: 85.5%
- viability, T/C [26]: 89.3%
- viability, T/C [27]: 89.5%
- viability, T/C [28]: 79.3%
- viability, T/C [29]: 73.1%
- viability, T/C [30]: 32.6%
- viability, T/C [31]: 104%
- viability, T/C [32]: 83.5%
- viability, T/C [33]: 94%
- viability, T/C [34]: 77.5%
- viability, T/C [35]: 71.4%
- viability, T/C [36]: 39.9%
